Measurements: PubChem BioAssay (NCI)
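Following 48 hours of exposure in 96-well plates, responses at five concentrations were used to interpolate endpoints linearly. At the GI50, growth is halved. At the TGI there is no net growth.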

Assays:
Assay in all cases: DTP human tumour cell line panel, 48 h
[1] = system: HOP-92 NSCLC
[2] = system: HL-60(TB) leukemia
[3] = system: SW-620 colon
[4] = system: SK-OV-3 ovarian
[5] = system: UO-31 renal
[6] = system: EKVX NSCLC
[7] = system: A549 NSCLC
[8] = system: SF-295 CNS
[9] = system: MOLT-4 leukemia
[10] = system: HS 578T breast

SMILES | TGI [1] | TGI [2] | TGI [3] | TGI [4] | TGI [5] | TGI [6] | TGI [7] | TGI [8] | TGI [9] | GI50 [3] | GI50 [4] | GI50 [5] | GI50 [6] | GI50 [7] | GI50 [8] | TGI [10] | GI50 [1] | GI50 [2] | GI50 [10] | GI50 [9]
CCC(=O)CC(=O)CCC(=O)Nc1cc(C)ccc1C | > 100 µM | > 100 µM | > 100 µM | > 100 µM | > 100 µM | > 100 µM | > 100 µM | > 100 µM | > 100 µM | – | – | – | – | – | – | – | – | – | – | –
O=c1/c(=C/c2ccccc2[N+](=O)[O-])sc2nnc(-c3ccco3)n12 | > 100 µM | 58.4 µM | 46.8 µM | > 100 µM | 96.8 µM | > 100 µM | 60.3 µM | 55.5 µM | 62 µM | – | – | – | – | – | – | – | – | – | – | –
Cc1c2n(c(=O)[nH]c1=O)C1OC(CO)C(O2)C1O (stereo not given) | > 100 µM | > 100 µM | > 100 µM | > 100 µM | > 100 µM | > 100 µM | > 100 µM | > 100 µM | > 100 µM | – | – | – | – | – | – | – | – | – | – | –
c1ccc2cc(-c3cc4ccccc4s3)ccc2c1 | > 100 µM | > 100 µM | > 100 µM | > 100 µM | > 100 µM | > 100 µM | > 100 µM | > 100 µM | > 100 µM | – | – | – | – | – | – | – | – | – | – | –
O=C1c2ccccc2C(=O)N1CCn1ccc(NC(c2ccccc2)(c2ccccc2)c2ccccc2)nc1=O | 53.3 µM | 44.2 µM | > 100 µM | > 100 µM | 52.8 µM | > 100 µM | > 100 µM | 28.8 µM | 43 µM | – | – | – | – | – | – | – | – | – | – | –
O=C(Nc1ccn(CCO)c(=O)n1)c1ccccc1 | > 100 µM | > 100 µM | > 100 µM | > 100 µM | > 100 µM | > 100 µM | > 100 µM | > 100 µM | – | – | – | – | – | – | – | – | – | – | – | –
CC1(C)COC(C2(C)C(=O)C=C(c3ccccc3)c3ccccc32)=N1 (stereo not given) | > 100 µM | 67.7 µM | > 100 µM | 47.9 µM | 98.6 µM | > 100 µM | > 100 µM | > 100 µM | > 100 µM | – | – | – | – | – | – | – | – | – | – | –
CNCc1ccccc1-c1csc([C@@H](C)Nc2nc(C)nc3cc(OC)c(OC)cc23)c1 | – | – | 3.44 µM | 18.8 µM | 2.48 µM | 12.9 µM | 5.73 µM | 2.88 µM | – | 1.49 µM | 4.67 µM | 1.23 µM | 1.61 µM | 1.94 µM | 1.45 µM | – | – | – | – | –
CSc1nc(=O)n(CCC#N)nc1SC | – | 30.7 µM | 58.3 µM | > 100 µM | > 100 µM | > 100 µM | > 100 µM | > 100 µM | 67.6 µM | – | – | – | – | – | – | > 100 µM | – | – | – | –
NC(=S)N/N=C(\CC1OC(=O)c2ccccc21)c1ccc(Cl)cc1 (stereo not given) | 91.7 µM | > 100 µM | > 100 µM | > 100 µM | 84.9 µM | – | > 100 µM | > 100 µM | > 100 µM | – | – | – | – | – | – | – | – | – | – | –
CC1=C(C(=O)Nc2ccc(F)c(Cl)c2)C(c2ccccc2O)NC(=S)N1 (stereo not given) | > 50 µM | > 50 µM | > 50 µM | > 50 µM | > 50 µM | – | > 50 µM | > 50 µM | > 50 µM | > 50 µM | > 50 µM | > 50 µM | – | 19.6 µM | 35.4 µM | > 50 µM | > 50 µM | > 50 µM | 35 µM | 17.8 µM
O=C1CCC(Cl)=CC2CCCN12 (stereo not given) | > 100 µM | > 100 µM | > 100 µM | > 100 µM | > 100 µM | > 100 µM | > 100 µM | – | > 100 µM | – | – | – | – | – | – | – | – | – | – | –
CCOC(=O)C1=CN(C)C=C(C(=O)OCC)C1c1cc(Br)c(OCC)c(OC)c1 | > 100 µM | > 100 µM | > 100 µM | > 100 µM | > 100 µM | – | > 100 µM | > 100 µM | > 100 µM | 67.2 µM | > 100 µM | 39.9 µM | – | 81.7 µM | 41.1 µM | > 100 µM | 20.5 µM | > 100 µM | 32.6 µM | > 100 µM
CC1(C)N=C(N)N=C(N)N1c1ccc(CCCCc2ccc(Cl)cc2S(=O)(=O)F)c(Cl)c1 | 12.6 µM | 3.26 µM | 14.1 µM | 18.9 µM | 23.6 µM | – | 13.9 µM | 12.8 µM | 15.5 µM | 0.234 µM | 4.3 µM | 6.22 µM | – | 0.388 µM | 0.409 µM | 30.9 µM | 1.32 µM | 0.107 µM | 4.05 µM | 0.436 µM
NC(=O)/C=C/C(=O)c1c(Cl)cccc1Cl | 1.94 µM | 4.05 µM | 1.04 µM | 6.38 µM | 0.859 µM | – | 3.39 µM | 7.35 µM | 5.46 µM | 0.511 µM | 2.6 µM | 0.429 µM | – | 1.79 µM | 2.54 µM | 5.15 µM | 0.574 µM | 0.679 µM | 2.2 µM | 1.18 µM
O=C(CCN(C(=O)O)S(=O)(=O)c1ccc(NC(=O)c2ccccc2)cc1)Nc1ccccc1 | > 100 µM | > 75.2 µM | > 68 µM | > 100 µM | > 100 µM | > 100 µM | > 46.4 µM | > 100 µM | > 85.3 µM | – | – | – | – | – | – | – | – | – | – | –
COc1cccc(F)c1C(=O)c1cnc(NC2CCN(S(C)(=O)=O)CC2)nc1N | 9.15 µM | 13.3 µM | > 18.1 µM | > 25 µM | 21.9 µM | – | > 25 µM | > 25 µM | > 14.7 µM | 0.781 µM | 13 µM | 4.6 µM | – | 3.15 µM | 3 µM | 15.9 µM | 1.05 µM | 1.44 µM | 3.83 µM | 2.14 µM
Cc1cc(Cl)cc(OCCn2cc(F)cn2)c1-c1nc(N)nc2c1CN(C(=O)NCC(C)(F)F)C2 | 0.728 µM | > 100 µM | > 100 µM | > 100 µM | > 100 µM | – | > 100 µM | > 93.9 µM | > 100 µM | 0.043 µM | 0.0492 µM | 0.682 µM | – | 0.116 µM | 0.131 µM | > 100 µM | 0.192 µM | 0.0407 µM | – | 0.112 µM
